Patent publication US11607422B2, “Uttroside B and derivatives thereof as therapeutics for hepatocellular carcinoma” (Rajiv Gandhi Centre for Biotechnology, an Autonomous …, priority 2016, dated 2023)

How the values were obtained:
Akt in HepG2 cells = assay: Western blot of Akt phosphorylation; format: cell-based, human; conditions: HepG2, no basal activation of Akt
Method: FIGS. 4A-4E are images showing Uttroside B inhibits MAPK and mTOR signaling, some of the crucial survival signals in liver cancer. […] HepG2 cells were treated with Uttroside B for different time intervals (0-240 min) and the whole cell lysate was resolved on a 10% gel and immunoblotted against phospho-ERK1/2 and phospho-Akt antibodies. Taxol was used as a positive control. […] HepG2 cells were treated with Uttroside B at different time intervals and the whole cell lysate was resolved on an 8% gel and immunoblotted against phospho-mTOR (2448) and phospho-mTOR (2481) antibodies.
Western blot analysis. Approximately 0.5×10^6 cells were grown on 60 mm culture plates and exposed to drugs as indicated for the desired time. The cells were then scraped out, washed in ice cold 1× PBS and pelleted down at 13000 rpm for 2 min. […]

[1] = tested on: normal immortalized hepatocytes (Chang Liver); assay: MTT assay in normal immortalized hepatocytes; format: cell-based; conditions: at 1250 nM, 72 h
Method: FIG. 2A is a graph comparison of IC50 of Uttroside B in a panel of cancer cells of different origin. The cancer cell lines HeLa, A375, HepG2, MDA-MB-231, HL 60, A549 and HCT116 were treated with Uttroside B as indicated, incubated for 72 h and the cell viability was assessed by MTT assay. FIG. 2B is a graph showing dose dependent effect of Uttroside B in the liver cancer cell lines and in normal immortalized hepatocytes. The liver cancer cell lines HepG2, Hep3B, SKHEP-1, Huh-7 and normal hepatocytes (Chang liver), were treated with Uttroside B incubated for 72 h and the cell viability was assessed by MTT assay. FIG. 2C is a graph comparison of IC50 of Uttroside B with sorafenib. HepG2 cells were treated with Uttroside B as indicated, incubated for 72 h, and the cell viability was assessed by MTT assay. […] The clones developed were counted and plotted as a graph. Colony containing more than four cells was counted as one clone. […]
MTT [3-(4,5-dimethylthiazole-2-yl)-2,5-diphenyltetrazolium bromide] assay is a standard colorimetric assay, suitable for analyzing proliferation, viability, and cytotoxicity. […] After overnight incubation, cells were treated with different concentrations of organic extracts (25-250 μg/ml) of S. nigrum and the isolated compound Uttroside B (250-1250 nM) for 72 h and cytotoxicity was measured. […]

HepG2 cells = assay: Clonogenic assay in HepG2 cells; format: cell-based, human; conditions: 72 h treatment, then 1 week
Method: FIG. 2A is a graph comparison of IC50 of Uttroside B in a panel of cancer cells of different origin. The cancer cell lines HeLa, A375, HepG2, MDA-MB-231, HL 60, A549 and HCT116 were treated with Uttroside B as indicated, incubated for 72 h and the cell viability was assessed by MTT assay. FIG. 2B is a graph showing dose dependent effect of Uttroside B in the liver cancer cell lines and in normal immortalized hepatocytes. The liver cancer cell lines HepG2, Hep3B, SKHEP-1, Huh-7 and normal hepatocytes (Chang liver), were treated with Uttroside B incubated for 72 h and the cell viability was assessed by MTT assay. FIG. 2C is a graph comparison of IC50 of Uttroside B with sorafenib. HepG2 cells were treated with Uttroside B as indicated, incubated for 72 h, and the cell viability was assessed by MTT assay. FIG. 2D is an image of the morphological changes induced by Uttroside B in HepG2 cells. HepG2 cells were treated with Uttroside B as indicated and incubated for 72 h. FIG. 2E is an image showing Uttroside B inhibits the clonogenic potential of HepG2 cells. HepG2 cells were treated with different concentrations of Uttroside B for 72 h and the clonogenic assay was performed. […] The clones developed were counted and plotted as a graph. Colony containing more than four cells was counted as one clone. […]

C[C@H](CC[C@@]1(O)O[C@H]2C[C@H]3[C@@H]4CC[C@H]5C[C@@H](O[C@@H]6O[C@H](CO)[C@H](O[C@@H]7O[C@H](CO)[C@@H](O)[C@H](O[C@@H]8OC[C@@H](O)[C@H](O)[C@H]8O)[C@H]7O[C@@H]7O[C@H](CO)[C@@H](O)[C@H](O)[C@H]7O)[C@H](O)[C@H]6O)CC[C@]5(C)[C@H]4CC[C@]3(C)[C@H]2[C@@H]1C)CO[C@@H]1O[C@H](CO)[C@@H](O)[C@H](O)[C@H]1O [Uttroside B]
activation of Akt (Akt in HepG2 cells): no significant role in activating Akt pathway
viable normal immortalized hepatocytes [1]: 70%
anti-clonogenic potential (colonies formed) (HepG2 cells): drastic dose dependent reduction in both number and size of the colonies formed
